In patent US4138554A, “7-[D-α-(4-Hydroxy-1,5-naphthyridine-3-carboxamido)-α-phenyl (and p-hydroxyphenyl)acetamido]-3-carbamoyloxymethyl-3-cephem-4-carboxylic acids” (priority 1977, dated 1979):
Converted amounts (≈) assume the structure as drawn. Where two headings read alike, the source gives them in different places.

Key:
Pseudomonas aeruginosa = assay: MIC by agar dilution against 61 strains of Pseudomonas aeruginosa, secondary evaluation; assay type: cell-based; conditions: Pseudomonas aeruginosa
Procedure: Minimum inhibitory concentrations (MIC) of BB-S520 were determined by serial two-fold agar dilution method using Steers' apparatus on Meuller-Hinton agar plate against 31 test organisms for the primary screening and also against 61 strains of Pseudomonas aeruginosa for the secondary evaluation. The results are shown in Table 1 and Table 2 along with those of BB-S514 and sulbenicillin.
Minimum inhibitory concentrations (MIC) of cephalosporins in the present study were determined by serial two-fold agar dilution method using Steers' apparatus on Mueller-Hinton agar plate against 31 test organisms for the primary screening and also against 61 strains of Pseudomonas aeruginosa for the secondary evaluation.

S. aureus Smith = assay: Median curative dose in mice, infection with S. aureus Smith; assay type: in vivo; conditions: Staphylococcus aureus, sc; subcutaneous injection in mice, S. aureus Smith, Table 4; read-out: Median Curative Dose (PD50)
From the text: (§1) Median Curative Dose in Mgm./Kg.
(§2) Upon Subcutaneous Injection in Mice

E. coli Juhl = assay: Median curative dose in mice, infection with E. coli Juhl; assay type: in vivo; conditions: Escherichia coli, sc
From the text: as §1, §2

Ps. aeruginosa A9843 = assay: Median curative dose in mice, infection with Ps. aeruginosa; assay type: in vivo; conditions: for ED50: Pseudomonas aeruginosa, A9843, sc
From the text: as §1, §2

`CC1(C)S[C@@H]2[C@H](NC(=O)C(c3ccccc3)S(=O)(=O)O)C(=O)N2[C@H]1C(=O)O` (some centres unmarked) [Sulbenicillin, sulbenicillin] was tested, and the MIC (Pseudomonas aeruginosa; BBRI Pa-No. 19, Table 7, read-out: MIC) was 6.3 µg/mL (≈ 15.2 µM), the MIC (Pseudomonas aeruginosa; BBRI Pa-No. 20, Table 2, read-out: MIC) was 25 µg/mL (≈ 60.3 µM) and the MIC (Pseudomonas aeruginosa; BBRI Pa-No. 20, Table 7, read-out: MIC) was 25 µg/mL (≈ 60.3 µM). It also gave an MIC (Pseudomonas aeruginosa; BBRI Pa-No. 21, Table 2, read-out: MIC) of 25 µg/mL (≈ 60.3 µM), an MIC (Pseudomonas aeruginosa; BBRI Pa-No. 21, Table 7, read-out: MIC) of 25 µg/mL (≈ 60.3 µM) and an MIC (Pseudomonas aeruginosa; BBRI Pa-No. 23, Table 2, read-out: MIC) of 50 µg/mL (≈ 121 µM). For the same molecule, the MIC (Pseudomonas aeruginosa; BBRI Pa-No. 23, Table 7, read-out: MIC) was 25 µg/mL (≈ 60.3 µM), the MIC (Pseudomonas aeruginosa; BBRI Pa-No. 24, Table 2, read-out: MIC) was 100 µg/mL (≈ 241 µM) and the MIC (Pseudomonas aeruginosa; BBRI Pa-No. 24, Table 7, read-out: MIC) was greater than 100 µg/mL. It also gave an MIC (Pseudomonas aeruginosa; BBRI Pa-No. 25, Table 7, read-out: MIC) of 6.3 µg/mL (≈ 15.2 µM), an MIC (Pseudomonas aeruginosa; BBRI Pa-No. 28, CPH1C527/72, Table 7, read-out: MIC) of 50 µg/mL (≈ 121 µM) and an MIC (Pseudomonas aeruginosa; BBRI Pa-No. 28, CPH10527/72, Table 2, read-out: MIC) of 50 µg/mL (≈ 121 µM). The MIC (Pseudomonas aeruginosa; BBRI Pa-No. 29, D122, Table 2, read-out: MIC) was 25 µg/mL (≈ 60.3 µM), the MIC (Pseudomonas aeruginosa; BBRI Pa-No. 29, D122, Table 7, read-out: MIC) was 25 µg/mL (≈ 60.3 µM) and the MIC (Pseudomonas aeruginosa; BBRI Pa-No. 30, Table 2, read-out: MIC) was 25 µg/mL (≈ 60.3 µM). It also gave an MIC (Pseudomonas aeruginosa; BBRI Pa-No. 30, Table 7, read-out: MIC) of 25 µg/mL (≈ 60.3 µM), an MIC (Pseudomonas aeruginosa; BBRI Pa-No. 31, Table 7, read-out: MIC) of 3.1 µg/mL (≈ 7.48 µM) and an MIC (Pseudomonas aeruginosa; BBRI Pa-No. 32, Table 2, read-out: MIC) of 25 µg/mL (≈ 60.3 µM). It also gave an MIC (Pseudomonas aeruginosa; BBRI Pa-No. 32, Table 7, read-out: MIC) of 25 µg/mL (≈ 60.3 µM), an MIC (Pseudomonas aeruginosa; BBRI Pa-No. 33, Table 2, read-out: MIC) of 100 µg/mL (≈ 241 µM) and an MIC (Pseudomonas aeruginosa; BBRI Pa-No. 33, Table 7, read-out: MIC) of 25 µg/mL (≈ 60.3 µM). It also gave an MIC (Pseudomonas aeruginosa; BBRI Pa-No. 34, Table 2, read-out: MIC) of 25 µg/mL (≈ 60.3 µM), an MIC (Pseudomonas aeruginosa; BBRI Pa-No. 35, Table 2, read-out: MIC) of 100 µg/mL (≈ 241 µM) and an MIC (Pseudomonas aeruginosa; BBRI Pa-No. 35, Table 7, read-out: MIC) of 50 µg/mL (≈ 121 µM). The MIC (Pseudomonas aeruginosa; BBRI Pa-No. 36, Table 2, read-out: MIC) was 1.6 µg/mL (≈ 3.86 µM), the MIC (Pseudomonas aeruginosa; BBRI Pa-No. 36, Table 7, read-out: MIC) was 0.8 µg/mL (≈ 1.93 µM) and the MIC (Pseudomonas aeruginosa; BBRI Pa-No. 37, Table 2, read-out: MIC) was 50 µg/mL (≈ 121 µM). It also gave an MIC (Pseudomonas aeruginosa; BBRI Pa-No. 37, Table 7, read-out: MIC) of 25 µg/mL (≈ 60.3 µM), an MIC (Pseudomonas aeruginosa; BBRI Pa-No. 38, Table 2, read-out: MIC) of 50 µg/mL (≈ 121 µM) and an MIC (Pseudomonas aeruginosa; BBRI Pa-No. 38, Table 7, read-out: MIC) of 100 µg/mL (≈ 241 µM). The MIC (Pseudomonas aeruginosa; BBRI Pa-No. 39, Table 2, read-out: MIC) was 25 µg/mL (≈ 60.3 µM), the MIC (Pseudomonas aeruginosa; BBRI Pa-No. 39, Table 7, read-out: MIC) was 25 µg/mL (≈ 60.3 µM) and the MIC (Pseudomonas aeruginosa; BBRI Pa-No. 41, Table 2, read-out: MIC) was 25 µg/mL (≈ 60.3 µM). For the same molecule, the MIC (Pseudomonas aeruginosa; BBRI Pa-No. 41, Table 7, read-out: MIC) was 25 µg/mL (≈ 60.3 µM), the MIC (Pseudomonas aeruginosa; BBRI Pa-No. 42, Table 2, read-out: MIC) was greater than 100 µg/mL and the MIC (Pseudomonas aeruginosa; BBRI Pa-No. 42, Table 7, read-out: MIC) was greater than 100 µg/mL. For the same molecule, the MIC (Pseudomonas aeruginosa; BBRI Pa-No. 43, Table 2, read-out: MIC) was 50 µg/mL (≈ 121 µM), the MIC (Pseudomonas aeruginosa; BBRI Pa-No. 43, Table 7, read-out: MIC) was 25 µg/mL (≈ 60.3 µM) and the MIC (Pseudomonas aeruginosa; BBRI Pa-No. 44 (unnamed strain), Table 7, read-out: MIC) was 50 µg/mL (≈ 121 µM). For the same molecule, the MIC (Pseudomonas aeruginosa; BBRI Pa-No. 44, Table 2, read-out: MIC) was 50 µg/mL (≈ 121 µM), the MIC (Pseudomonas aeruginosa; BBRI Pa-No. 51, Table 2, read-out: MIC) was 25 µg/mL (≈ 60.3 µM) and the MIC (Pseudomonas aeruginosa; BBRI Pa-No. 51, Table 7, read-out: MIC) was 25 µg/mL (≈ 60.3 µM). The MIC (Pseudomonas aeruginosa; BBRI Pa-No. 52, Table 2, read-out: MIC) was 25 µg/mL (≈ 60.3 µM), the MIC (Pseudomonas aeruginosa; BBRI Pa-No. 52, Table 7, read-out: MIC) was 50 µg/mL (≈ 121 µM) and the MIC (Pseudomonas aeruginosa; BBRI Pa-No. 53, Table 2, read-out: MIC) was 25 µg/mL (≈ 60.3 µM). The MIC (Pseudomonas aeruginosa; BBRI Pa-No. 53, Table 7, read-out: MIC) was 25 µg/mL (≈ 60.3 µM), the MIC (Pseudomonas aeruginosa; BBRI Pa-No. 54, Table 2, read-out: MIC) was 50 µg/mL (≈ 121 µM) and the MIC (Pseudomonas aeruginosa; BBRI Pa-No. 54, Table 7, read-out: MIC) was 25 µg/mL (≈ 60.3 µM). For the same molecule, the MIC (Pseudomonas aeruginosa; BBRI Pa-No. 55, Table 2, read-out: MIC) was 25 µg/mL (≈ 60.3 µM), the MIC (Pseudomonas aeruginosa; BBRI Pa-No. 55, Table 7, read-out: MIC) was 25 µg/mL (≈ 60.3 µM) and the MIC (Pseudomonas aeruginosa; BBRI Pa-No. 56, Table 2, read-out: MIC) was 25 µg/mL (≈ 60.3 µM). The MIC (Pseudomonas aeruginosa; BBRI Pa-No. 56, Table 7, read-out: MIC) was 25 µg/mL (≈ 60.3 µM), the MIC (Pseudomonas aeruginosa; BBRI Pa-No. 57, Table 2, read-out: MIC) was 25 µg/mL (≈ 60.3 µM) and the MIC (Pseudomonas aeruginosa; BBRI Pa-No. 57, Table 7, read-out: MIC) was 25 µg/mL (≈ 60.3 µM). For the same molecule, the MIC (Pseudomonas aeruginosa; BBRI Pa-No. 58, Table 2, read-out: MIC) was 50 µg/mL (≈ 121 µM), the MIC (Pseudomonas aeruginosa; BBRI Pa-No. 58, Table 7, read-out: MIC) was 50 µg/mL (≈ 121 µM) and the MIC (Pseudomonas aeruginosa; BBRI Pa-No. 59, Table 2, read-out: MIC) was 50 µg/mL (≈ 121 µM). It also gave an MIC (Pseudomonas aeruginosa; BBRI Pa-No. 59, Table 7, read-out: MIC) of 25 µg/mL (≈ 60.3 µM), an MIC (Pseudomonas aeruginosa; BBRI Pa-No. 61, Table 2, read-out: MIC) of 50 µg/mL (≈ 121 µM) and an MIC (Pseudomonas aeruginosa; BBRI Pa-No. 61, Table 7, read-out: MIC) of 25 µg/mL (≈ 60.3 µM). It also gave an MIC (Pseudomonas aeruginosa; BBRI Pa-No. 62, Table 2, read-out: MIC) greater than 100 µg/mL, an MIC (Pseudomonas aeruginosa; BBRI Pa-No. 62, Table 7, read-out: MIC) greater than 100 µg/mL and an MIC (Pseudomonas aeruginosa; BBRI Pa-No. 64, Table 2, read-out: MIC) of 25 µg/mL (≈ 60.3 µM). The MIC (Pseudomonas aeruginosa; BBRI Pa-No. 64, Table 7, read-out: MIC) was 25 µg/mL (≈ 60.3 µM), the MIC (Pseudomonas aeruginosa; BBRI Pa-No. 65, Table 2, read-out: MIC) was 25 µg/mL (≈ 60.3 µM) and the MIC (Pseudomonas aeruginosa; BBRI Pa-No. 65, Table 7, read-out: MIC) was 25 µg/mL (≈ 60.3 µM). It also gave an MIC (Pseudomonas aeruginosa; BBRI Pa-No. 66, Table 2, read-out: MIC) of 25 µg/mL (≈ 60.3 µM), an MIC (Pseudomonas aeruginosa; BBRI Pa-No. 66, Table 7, read-out: MIC) of 25 µg/mL (≈ 60.3 µM) and an MIC (Pseudomonas aeruginosa; BBRI Pa-No. 67, Table 2, read-out: MIC) of 50 µg/mL (≈ 121 µM). It also gave an MIC (Pseudomonas aeruginosa; BBRI Pa-No. 67, Table 7, read-out: MIC) of 25 µg/mL (≈ 60.3 µM), an MIC (Pseudomonas aeruginosa; BBRI Pa-No. 68, Table 2, read-out: MIC) of 50 µg/mL (≈ 121 µM) and an MIC (Pseudomonas aeruginosa; BBRI Pa-No. 68, Table 7, read-out: MIC) of 50 µg/mL (≈ 121 µM). For the same molecule, the MIC (Pseudomonas aeruginosa; BBRI Pa-No. 69, Table 2, read-out: MIC) was 50 µg/mL (≈ 121 µM), the MIC (Pseudomonas aeruginosa; BBRI Pa-No. 69, Table 7, read-out: MIC) was 100 µg/mL (≈ 241 µM) and the MIC (Pseudomonas aeruginosa; BBRI Pa-No. 70, K-Ps102 (CR-102), Table 2, read-out: MIC) was 25 µg/mL (≈ 60.3 µM). For the same molecule, the MIC (Pseudomonas aeruginosa; BBRI Pa-No. 70, K-Ps102(CR-102), Table 7, read-out: MIC) was 50 µg/mL (≈ 121 µM), the MIC (Pseudomonas aeruginosa; GN315) was 12.5 µg/mL (≈ 30.2 µM) and the MIC (Pseudomonas aeruginosa; GN315, BBRI Pa-No. 27, GN315, Table 2, read-out: MIC) was 50 µg/mL (≈ 121 µM). For the same molecule, the MIC (Pseudomonas aeruginosa; GN4925, BBRI Pa-No. 44, GN4925, Table 7, read-out: MIC) was 50 µg/mL (≈ 121 µM), the MIC (Pseudomonas aeruginosa; GN4925, BBRI Pa-No. 45, GN4925, Table 2, read-out: MIC) was 50 µg/mL (≈ 121 µM) and the ED50 (S. aureus Smith) was 2.4 mg/kg. The ED50 (E. coli Juhl; mice, E. coli Juhl infection, Table 5, read-out: PD50) was 8.5 mg/kg, the ED50 (E. coli Juhl; subcutaneous injection in mice, E. coli Juhl, Table 4, read-out: Median Curative Dose (PD50)) was 9.5 mg/kg and the ED50 (Ps. aeruginosa A9843; mice, P. aerug. A9843 infection, Table 5, read-out: PD50) was 140 mg/kg. It also gave an ED50 (Ps. aeruginosa A9843; subcutaneous injection in mice, Ps. aeruginosa, Table 4, read-out: Median Curative Dose (PD50)) of 85 mg/kg and a PD50 (Ps. aeruginosa A9843; mice, P. aerug. A9843 infection, Table 5) of 130 mg/kg.
